Reference: patent US20230263822A1, “MODULATION OF FACTOR 11 EXPRESSION” (Ionis Pharmaceuticals, Inc., priority 2008, published 2023)

How the values were obtained:
[1] = parameters: species or system CD1 mice; settings: mouse, in vivo, sc, 50 mg/kg
Description: The concentration of the full-length oligonucleotide was measured. The method used is a modification of previously published methods (Leeds et al., 1996; Geary et al., 1999) which consist of a phenol-chloroform (liquid-liquid) extraction followed by a solid phase extraction. An internal standard (ISIS 355868, a 27-mer 2′-O-methoxyethyl modified phosphorothioate oligonucleotide, […], designated herein as SEQ ID NO: 270) was added prior to extraction. […] The results are presented in Table 85 expressed as μg/g liver tissue.

human Factor 11 mRNA = assay: Dose-dependent inhibition of human Factor 11 in HepG2 cells, electroporation 123.46-10,000 nM (Example 31); assay type: cell-based
Summary of the method: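 HepG2 cells were electroporated with antisense oligonucleotide at 123.46, 370.37, 1,111.11, 3,333.33 and 10,000 nM and harvested about 16 hours later. Factor 11 mRNA was quantified by qRT-PCR and normalised to total RNA (RIBOGREEN). Inhibition is expressed relative to untreated cells.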

Substance: 412223 (antisense ACAGTTTCTGGCAGGCCTCG; 5-10-5 MOE gapmer, further chemistry not given here) [compound 412223]
- Half-Life in the liver [1]: 21.9 days

Substance: 412224 (antisense GCATTGGTGCACAGTTTCTG; 5-10-5 MOE gapmer, further chemistry not given here) [compound 412224]
- Half-Life in the liver [1]: 16.6 days

Substance: 412225 (antisense GCAGCGGACGGCATTGGTGC; 5-10-5 MOE gapmer, further chemistry not given here) [compound 412225]
- Half-Life in the liver [1]: 20.7 days

Substance: 413482 (antisense GGACGGCATTGGTGCACAGT; 5-10-5 MOE gapmer, further chemistry not given here) [compound 413482]
- Half-Life in the liver [1]: 19.5 days

Substance: 416850 (antisense TGCACAGTTTCTGGCAGGCC; 5-10-5 gapmer, further chemistry not given here) [compound 416850]
- Percent inhibition of Factor 11 mRNA at 123.47 nM (human Factor 11 mRNA; electroporation, 123.47 nM, approx. 16 hours, relative to untreated control cells): 0%
- Percent inhibition of Factor 11 mRNA at 370.37 nM (human Factor 11 mRNA; electroporation, 370.37 nM, approx. 16 hours, relative to untreated control cells): 12%
- Percent inhibition of Factor 11 mRNA at 1,111.11 nM (human Factor 11 mRNA; electroporation, 1,111.11 nM, approx. 16 hours, relative to untreated control cells): 36%
- Percent inhibition of Factor 11 mRNA at 3,333.33 nM (human Factor 11 mRNA; electroporation, 3,333.33 nM, approx. 16 hours, relative to untreated control cells): 74%
- Percent inhibition of Factor 11 mRNA at 10,000.0 nM (human Factor 11 mRNA; electroporation, 10,000.0 nM, approx. 16 hours, relative to untreated control cells): 73%
- IC50 (human Factor 11 mRNA; electroporation, Factor 11 mRNA expression): 2.8 µM
